The text below walks through data of patent US20180369426A1, “COMPOSITIONS COMPRISING FLUORESCENT DYES ASSOCIATED WITH VIRAL COMPONENTS FOR NERVE IMAGING” (priority 2008, published 2018).

The assay deals with footpad nerves. The assay is described as follows: Mouse footpad injection, ICG fluorescence imaging of nerves (Example 3). The following applies: 10 μL into footpad, imaged 2 hours after injection, back dissected (FIG. 3A). The format is in vivo. The method, then:
Example 3 is a comparison of imaging with a fluorescent dye alone versus a fluorescent dye bound to the virus. Unless otherwise specified, all images are digital images obtained from a CCD camera.
A mouse ([…]) was briefly anesthetized by halothane inhalation. The right footpad of the mouse was injected with 10 μL of ICG, phosphate buffered saline (PBS) and a virus mutant, HSV-2 ΔRR (“ICG/PBS/HSV-2 ΔRR mixture”). The left footpad was injected with 10 μl of ICG/PBS mixture as a control. The same concentration of ICG was present in both mixtures.
2 hours after footpad injections, the mouse was anesthetized and then euthanized with interperitoneal injection of sodium pentobarbital. ICG fluorescence images were acquired first of the intact mouse and then at various stages of dissection.

As for `CC1(C)C(/C=C/C=C/C=C/C=C2\N(CCCCS(=O)(=O)O)c3ccc4ccccc4c3C2(C)C)=[N+](CCCCS(=O)(=O)[O-])c2ccc3ccccc3c21` [ICG, indocyanine green], the “extent of fluorescence after footpad injection” value is “limited to the left foot itself”.
